# Measurements reported in US20240158446A1, “CYCLIC COMPOUND HAVING SELECTIVE INHIBITORY ACTION ON KRAS OVER HRAS AND NRAS” (CHUGAI SEIYAKU KABUSHIKI KAISHA, priority 2021, published 2024).
# Where two headings read alike, the source gives them in different places. Where a SMILES comes first, the peptide text is derived from it. Bridges are numbered along the chain shown (N, C = ends). [ ]: non-standard residue; d: D form. The star is where a group is joined. hPhe(3-Cl-4-CF3) = N[C@@H](CCc1ccc(C(F)(F)F)c(Cl)c1)C(=O)O; NPrPhe(4-CF3) = CCCN[C@@H](Cc1ccc(C(F)(F)F)cc1)C(=O)O; Pro(4-spirocPr) = O=C(O)[C@@H]1CC2(CC2)CN1; NMeGly(cPent) = CN[C@H](C(=O)O)C1CCCC1; Pro(4S-Me) = C[C@@H]1CN[C@H](C(=O)O)C1; Hyp = O=C(O)[C@@H]1C[C@@H](O)CN1; NMeD = CN[C@@H](CC(=O)O)C(=O)O; NMeL = CN[C@@H](CC(C)C)C(=O)O; Morpholide = C1CN(*)CCO1; NMeA = CN[C@@H](C)C(=O)O; Ac5c = NC1(C(=O)O)CCCC1; Aze = O=C(O)[C@@H]1CCN1; Ac4c = NC1(C(=O)O)CCC1; NEtG = CCNCC(=O)O; Sar = CNCC(=O)O
# Key:
# [1] = molecular target: GDP-bound KRAS wild-type protein (Homo sapiens, UniProt P01116); test: Binding to KRAS by surface plasmon resonance (SPR), Single Cycle Kinetics; details: GDP-bound KRAS wild-type protein, 1:1 binding model, read-out: KRAS KD
# [2] = molecular target: GDP-bound NRAS wild-type protein (Homo sapiens, UniProt P01111); test: Binding to NRAS by surface plasmon resonance (SPR), Single Cycle Kinetics; details: SPR, GDP-bound NRAS wild-type protein vs GDP-bound KRAS wild-type protein
# [3] = molecular target: GDP-bound HRAS wild-type protein (Homo sapiens, UniProt P01112); test: Binding to HRAS by surface plasmon resonance (SPR), Single Cycle Kinetics; details: SPR, GDP-bound HRAS wild-type protein vs GDP-bound KRAS wild-type protein
# Sequence of GDP-bound HRAS wild-type protein (P01112 whole entry): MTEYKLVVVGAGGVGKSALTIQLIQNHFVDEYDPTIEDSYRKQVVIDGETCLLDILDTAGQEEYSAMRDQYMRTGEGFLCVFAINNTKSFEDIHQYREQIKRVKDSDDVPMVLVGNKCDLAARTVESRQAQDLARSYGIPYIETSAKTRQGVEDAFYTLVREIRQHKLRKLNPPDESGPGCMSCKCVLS
# Sequence of GDP-bound NRAS wild-type protein (P01111 whole entry): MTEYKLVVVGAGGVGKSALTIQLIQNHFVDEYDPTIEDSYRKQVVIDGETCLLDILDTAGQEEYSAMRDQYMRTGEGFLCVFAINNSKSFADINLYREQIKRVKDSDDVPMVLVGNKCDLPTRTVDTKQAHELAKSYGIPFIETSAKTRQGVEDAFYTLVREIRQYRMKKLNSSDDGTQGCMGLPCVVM
# Sequence of GDP-bound KRAS wild-type protein (P01116 whole entry): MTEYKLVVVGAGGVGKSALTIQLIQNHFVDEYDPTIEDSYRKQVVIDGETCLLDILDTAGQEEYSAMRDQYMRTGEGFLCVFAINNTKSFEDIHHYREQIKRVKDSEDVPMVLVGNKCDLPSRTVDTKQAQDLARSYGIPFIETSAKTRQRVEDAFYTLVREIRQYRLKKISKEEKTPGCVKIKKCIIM
SMILES,Kd ([1]; SPR Single Cycle Kinetics) [nM],"Kd ([1]; SPR, Single Cycle Kinetics) [nM]",NRAS/KRAS (ratio of KD value for NRAS to KD value for KRAS) [2],HRAS/KRAS (ratio of KD value for HRAS to KD value for KRAS) [3],NRAS/KRAS (ratio of KD value with respect to NRAS to KD value with respect to KRAS) [2],HRAS/KRAS (ratio of KD value with respect to HRAS to KD value with respect to KRAS) [3],NRAS/KRAS (ratio of KD value for NRAS to KD value for KRAS) ([2]; KD ratio class),HRAS/KRAS (ratio of KD value for HRAS to KD value for KRAS) ([3]; KD ratio class)
CCCN1C(=O)[C@@H]2CCN2C(=O)[C@H](C)N(C)C(=O)[C@H]([C@@H](C)CC)NC(=O)[C@H](CC(C)C)N(C)C(=O)C[C@@H](C(=O)N2CCOCC2)N(C)C(=O)[C@H](C2CCCC2)N(C)C(=O)C2(CCCC2)NC(=O)[C@@H]2CC3(CC3)CN2C(=O)[C@H](CCc2ccc(C(F)(F)F)c(Cl)c2)NC(=O)CN(C)C(=O)[C@@H]1Cc1ccc(C(F)(F)F)cc1 [PP0282] ([NMeL]I[NMeA][Aze][NPrPhe(4-CF3)][Sar][hPhe(3-Cl-4-CF3)][Pro(4-spirocPr)][Ac5c][NMeGly(cPent)][NMeD]-Morpholide; lactam N-11),0.11,,C (A compound having a KD ratio of 0.1 or more and less than 3 is denoted as C),C (A compound having a KD ratio of 0.1 or more and less than 3 is denoted as C),,,,
CCCN1C(=O)[C@@H]2CCN2C(=O)[C@H](C)N(C)C(=O)[C@H]([C@@H](C)CC)NC(=O)[C@H](CC(C)C)N(C)C(=O)C[C@@H](C(=O)N2CCOCC2)N(C)C(=O)[C@H](C2CCCC2)N(C)C(=O)C2(CCCC2)NC(=O)[C@@H]2C[C@@H](OCC)CN2C(=O)[C@H](CCc2ccc(C(F)(F)F)c(Cl)c2)NC(=O)CN(C)C(=O)[C@@H]1Cc1ccc(C(F)(F)F)cc1 [PP0228] ([NMeL]I[NMeA][Aze][NPrPhe(4-CF3)][Sar][hPhe(3-Cl-4-CF3)][Hyp](Et)[Ac5c][NMeGly(cPent)][NMeD]-Morpholide; lactam N-11),0.037,,C (A compound having a KD ratio of 0.1 or more and less than 3 is denoted as C),B (a compound having 3 or more and less than 10 is denoted as B),,,,
CCCN1C(=O)CN(C)C(=O)CN(CC)C(=O)[C@H]([C@@H](C)CC)NC(=O)[C@H](CC(C)C)N(C)C(=O)C[C@@H](C(=O)N2CCOCC2)NC(=O)[C@H](C2CCCC2)N(C)C(=O)C2(CCC2)NC(=O)[C@@H]2C[C@@H](OCC)CN2C(=O)[C@H](CCc2ccc(C(F)(F)F)c(Cl)c2)NC(=O)CN(C)C(=O)[C@@H]1Cc1ccc(C(F)(F)F)cc1 [PP0336] ([NMeL]I[NEtG][Sar][NPrPhe(4-CF3)][Sar][hPhe(3-Cl-4-CF3)][Hyp](Et)[Ac4c][NMeGly(cPent)]D-Morpholide; lactam N-11),1.6,,B (a compound having 3 or more and less than 10 is denoted as B),B (a compound having 3 or more and less than 10 is denoted as B),,,,

# Now from value to compound, other results behind:
Kd ([1]; SPR Single Cycle Kinetics) [nM],"Kd ([1]; SPR, Single Cycle Kinetics) [nM]",SMILES,NRAS/KRAS (ratio of KD value for NRAS to KD value for KRAS) [2],HRAS/KRAS (ratio of KD value for HRAS to KD value for KRAS) [3],NRAS/KRAS (ratio of KD value with respect to NRAS to KD value with respect to KRAS) [2],HRAS/KRAS (ratio of KD value with respect to HRAS to KD value with respect to KRAS) [3],NRAS/KRAS (ratio of KD value for NRAS to KD value for KRAS) ([2]; KD ratio class),HRAS/KRAS (ratio of KD value for HRAS to KD value for KRAS) ([3]; KD ratio class)
0.083,,CCCN1C(=O)[C@@H]2CCN2C(=O)CN(C)C(=O)[C@H]([C@@H](C)CC)NC(=O)[C@H](CC(C)C)N(C)C(=O)C[C@@H](C(=O)N2CCOCC2)N(C)C(=O)[C@H](C2CCCC2)N(C)C(=O)C2(CCCC2)NC(=O)[C@@H]2C[C@H](C)CN2C(=O)[C@H](CCc2ccc(C(F)(F)F)c(Cl)c2)NC(=O)CN(C)C(=O)[C@@H]1Cc1ccc(C(F)(F)F)cc1 [PP0457] ([NMeL]I[Sar][Aze][NPrPhe(4-CF3)][Sar][hPhe(3-Cl-4-CF3)][Pro(4S-Me)][Ac5c][NMeGly(cPent)][NMeD]-Morpholide; lactam N-11),,,C (A compound having a KD ratio of 0.1 or more and less than 3 is denoted as C),B (a compound having 3 or more and less than 10 is denoted as B),,
0.021,,CCO[C@@H]1C[C@H]2C(=O)NC3(CCC3)C(=O)N(C)[C@@H](C3CCCC3)C(=O)N(C)[C@H](C(=O)N(C)C)CC(=O)N(C)[C@@H](CC3CC3)C(=O)N[C@@H]([C@@H](C)CC)C(=O)N(C)CC(=O)N(C)[C@H]3CCCCN(C3=O)[C@@H](Cc3ccc(C(F)(F)F)cc3)C(=O)N(C)CC(=O)N[C@@H](CCc3cc(F)c(C(F)(F)F)c(F)c3)C(=O)N2C1 [PP0697],,,C (A compound having a KD ratio of 0.1 or more and less than 3 is denoted as C),C (A compound having a KD ratio of 0.1 or more and less than 3 is denoted as C),,
,0.42,CCO[C@@H]1C[C@H]2C(=O)NC3(CCC3)C(=O)N(C)[C@@H](C(CC)CC)C(=O)N(C)[C@H](C(=O)N(C)CCOC)CC(=O)N(C)[C@@H](CC)C(=O)N[C@@H]([C@@H](C)CC)C(=O)N(C)CC(=O)N(C)[C@H]3C/C=C\CCN(C3=O)[C@@H](Cc3ccc(C(F)(F)F)cc3)C(=O)N(C)CC(=O)N[C@@H](CCc3cc(F)c(C(F)(F)F)c(F)c3)C(=O)N2C1 [PP1330],,,,,AA (a compound having 20 or more is denoted as AA),A (a compound having 10 or more and less than 20 is denoted as A)
